Results from patent US20210308101A1, “METHODS OF TREATING FIBROMYALGIA” (Aptinyx Inc., priority 2019, published 2021).
“Also recorded” adds a separate entry of the source.

Assays:
Type in all cases: in vivo, human
[1] = tested on: subjects with fibromyalgia; assay: Hospital Anxiety and Depression Scale (HADS); conditions: Weeks 4 and 6
Text: As used herein, “HADS” is Hospital Anxiety and Depression Scale. The HADS is a self-reported screening tool for anxiety and depression in non-psychiatric clinical populations. The scale consists of 14 items (7 each for anxiety and depression), each rated on a 4-point scale ranging from 0 to 3 (i.e. 0=not at all; 3=most of the time). The categorical responses are slightly different for some of the questions, but the numeric scores remained the same from 0 to 3. Responses were based on the relative frequency of symptoms over the preceding week. […] The individual imputed missing scores used the specific subscale mean score and were rounded off to the nearest whole number. If an individual subscale score was missing 4 or more items, then that subscale score was set to missing. A total score adding the anxiety and depression subscale scores for HADS was not calculated. Possible scores range from 0 to 21 for each subscale. […]
The HADS assessment was collected and analyzed at visits Screening, Day 1, Week 2, Week 4, Week 6, and Follow-up (Week 7). […] Additionally, the treatment group comparisons were analyzed using the paired t-test and nonparametric Wilcoxon signed-rank test.
The 4 interpreted categorical values for each subscale were summarized in a frequency distribution table. All HADS data collected and the calculated subscale scores at each visit were presented in a subject listing.

[2] = tested on: subjects with fibromyalgia; assay: Patient Global Impression of Change (PGI-C)
Text: As used herein, the “PGI-C” is Patient Global Impression of Change. The PGI-C is a 7-point Likert scale that allows subjects to rate the change in the disease state from study initiation to specific time points during the study or at the end of the study. It provides the subject's impression of overall change.
The PGI-C data were collected and analyzed at visits Week 2, Week 4, Week 6, and Follow-up (Week 7). […] The actual values and changes from treatment periods at Week 4 and Week 6 were summarized using descriptive statistics. A frequency distribution was created for each analysis visit based on the collected categorical values. The analysis categorical values stated above were summarized by frequency distributions and p-values using McNemar's test.

[3] = tested on: subjects with fibromyalgia; assay: QST: MAST pressure pain sensitivity at the thumbnail
Text: The multi-modal automated sensory testing (MAST) system was used to measure localized pressure sensitivity at an asymptomatic, neutral body site, the thumbnail. The MAST system is a nonsignificant-risk investigational device that applies a computer-controlled mechanical stimulation at precisely controlled intensity levels and durations. The validity in the measurement of centrally-mediated pain sensitivity has been discussed extensively. The MAST system delivered an ascending series of computer-controlled, 5-second pressures at 20-second intervals (with 20% jitter) to the subject's thumbnail bed, beginning at 0.25 to 0.5 kg/cm^2 and increasing in steps of 0.25 to 0.50 kg/cm^2. Pain intensity was rated after each pressure on a 0 to 100 NRS. Testing was terminated when the first of 3 possible stop conditions were met: 1) subject reached her personal pain tolerance and requested to stop the test, 2) subject reported a pain intensity rating of >80, or 3) the maximum pressure of 10 kg/cm^2 was delivered. A regression model was used fit the stimulus-response data obtained from this procedure and interpolate Pain50, defined as the pressure intensity that evokes a moderate level of suprathreshold pressure pain (i.e., 50/100). Additional derived variables included: 1) Pressure pain threshold, defined as the first pressure in a series of at least 2 consecutive pressures that elicited a NRS pain rating >0; 2) slope of the stimulus-response function as a measure of the rate of pain increase; and 3) pressure pain tolerance, defined as the last pressure recorded in the stimulus response profile. These variables were used to determine the effect of drug and placebo treatments on pain sensitivity.
QST data were analyzed at the University of Michigan CPFRC. Dependent variables were the MAST derived outcomes (Pain50, pressure pain threshold, pain tolerance, and pain ratings at 2 kg/cm2), algometry-derived pressure pain thresholds (mean of three trials) at each anatomical site, average cuff intensity ratings (mean of ratings at all stimulus levels during the ascending or random sequences), and average visual task unpleasantness and brightness intensity ratings (mean of ratings at all stimulus levels). Practice data were not analyzed. Overall pain intensity and unpleasantness NRS scores as well as stimulus response curves for each test were assessed during post hoc analyses. Data points displaying measurement artefacts, including device malfunction or user error, were set to missing. Single subject QST variables were analyzed using paired t-tests and/or nonparametric Wilcoxon signed-rank tests in SPSS or R.

[4] = tested on: dorsal anterior cingulate cortex Glx; assay: 1H-MRS Glx levels, dorsal anterior cingulate cortex
Text: As used herein, “^1H-MRS” is Magnetic Resonance Spectroscopy (1H-MRS) or Proton Magnetic Resonance Spectroscopy. Proton magnetic resonance spectroscopy is a noninvasive imaging technique that allows in vivo determination of biochemical parameters within brain tissue. Proton magnetic resonance spectroscopy data were used to collect brain neurotransmitter levels of Glu and combined glutamate+glutamine metabolites (Glx). This method provides metrics amenable to longitudinal studies such as those proposed here. High-resolution anatomical scans can isolate identical brain structures within individuals over time, thus minimizing error that otherwise would occur because of slight differences in voxel location from 1 evaluation to the next. Previous ^1H-MRS studies have utilized this approach to examine changes in the levels of CNS metabolites in test-retest studies of drug effects. […]
Raw data from each single-voxel spectroscopy sequence underwent manual post-processing using ^1H-MRS software (LCModel; Stephen Provencher, Oakville, Ontario, Canada). […] Glx values were calculated as an absolute concentration using the water signal for normalization or as a ratio to creatine. […]
The analysis visit comparisons stated were analyzed using paired t-tests and/or nonparametric Wilcoxon signed-rank tests of Glx levels at each voxel independently in SPSS. […]

CC(C)C(=O)N1CCC[C@]12CN([C@H](C(N)=O)[C@@H](C)O)C2=O [NYX-2925, (2S, 3R)-3-hydroxy-2-((R)-5-isobutyryl-1-oxo-2,5-diazaspiro[3.4]octan-2-yl)butanamide]
HADS Total Anxiety score, mean changes from Week 2 (placebo) [1]: No statistically significant mean changes
HADS Total Depression score, mean changes from Week 2 (placebo) [1]: No statistically significant mean changes
Patient Global Impression of Change ([2]; post hoc, improved including minimally improved, 20 mg and 200 mg versus placebo): a larger proportion of subjects had a reduction of severity
Patient Global Impression of Change ([2]; traditional definition of improved (very much improved, much improved)): little, if any, change in severity
MAST Pain50 threshold ([3]; NYX-2925 20 mg relative to baseline, p=0.079): marginal decrease in threshold
pain thresholds of the MAST test ([3]; NYX-2925 200 mg): not significantly altered
rating of pain unpleasantness evoked by MAST testing ([3]; NYX-2925 200 mg, baseline 50.00±24.24, p=0.038): 42.14±19.34
rating of overall pain intensity evoked by MAST testing ([3]; NYX-2925 200 mg, baseline 51.43±15.01, p=0.035): 44.76±12.19 NRS units
dACC resting Glx (concentrations and ratios to creatine) ([4]; NYX-2925 20 mg vs placebo, p<0.05): statistically significant reductions of Glx levels; also recorded: decreased resting Glx
dACC mean Glx levels ([4]; NYX-2925 200 mg vs placebo): No significant decrease; also recorded: No effect
